Data from patent publication US12448373B2, “Azetidinyl-acetamides as CXCR7 inhibitors” (CHEMOCENTRYX, INC., priority 2021, dated 2025).

These compounds were tested against T1, CXCR7 (Homo sapiens, UniProt P25106) (assay: CXCR7 β-arrestin recruitment assay in CHO-CXCR7 cells (ProLink/EA β-galactosidase complementation), induced by human SDF-1a). Conditions: assay buffer, SDF-1a at EC50 concentration.
T1 construct: expressed in transfected cells; host or cells: CHO cells (CHO-CXCR7), transgenes maintained with Hygromycin B and G418
T1 sequence (P25106 whole entry): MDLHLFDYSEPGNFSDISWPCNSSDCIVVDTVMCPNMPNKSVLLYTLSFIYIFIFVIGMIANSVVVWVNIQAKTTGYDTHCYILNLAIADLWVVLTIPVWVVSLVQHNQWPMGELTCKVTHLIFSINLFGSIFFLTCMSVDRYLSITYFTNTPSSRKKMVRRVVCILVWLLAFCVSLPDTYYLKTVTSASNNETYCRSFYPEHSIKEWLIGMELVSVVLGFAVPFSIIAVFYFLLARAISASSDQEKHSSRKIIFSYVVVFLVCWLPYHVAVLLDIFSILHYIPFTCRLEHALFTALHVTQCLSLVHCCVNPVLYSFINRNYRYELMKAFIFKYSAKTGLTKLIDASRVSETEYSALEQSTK
Assay type: cell-based
Outline: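 SDF-1α-induced β-arrestin recruitment was measured by enzyme-fragment complementation (ProLink-CXCR7 with β-arrestin-EA) in stable CHO cells. Agonist was dosed at its EC50, determined the same day, alongside serially diluted compound for 1.5 h at 37 °C. Fluorogenic galactoside substrate (0.4 mM, 30 min) was read at 360/465 nm, with IC50 from 3-parameter nonlinear regression.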

Compound | IC50 [µM]
Cn1cc(C(C)(C)NC(=O)CC2(NC(=O)c3cc(-c4ccc(F)cc4F)on3)CN(C3CCCCC3)C2)cn1 [Example 1.273] | 0.005 to 0.1
CC(C)(NC(=O)CC1(NC(=O)c2cc(-c3ccc(F)cc3F)on2)CN(C2CCC3(CC2)COC3)C1)c1cccc(F)c1 [Example 1.234] | 0.005 to 0.1
Cc1cc(C)nc(C(C)(C)NC(=O)CC2(NC(=O)c3cc(-c4ccc(F)cc4F)on3)CN(CC3(C)CCC3)C2)n1 [Example 1.001] | < 0.005
COc1ccc(F)cc1C(C)(C)NC(=O)CC1(NC(=O)c2nnc(-c3ccc(F)cc3F)s2)CN([C@H]2CC[C@](C)(O)CC2)C1 [Example 1.017] | 0.005 to 0.1
CC(C)(NC(=O)CC1(NC(=O)c2cc(-c3ccc(F)cc3F)on2)CN([C@H]2CC[C@](C)(O)CC2)C1)c1ccc(F)cc1Cl [Example 1.253] | 0.005 to 0.1
CC(C)(NC(=O)CC1(NC(=O)c2cc(-c3ccc(F)cc3F)on2)CN([C@H]2CC[C@@](C)(O)CC2)C1)c1cccc(F)c1 [Example 1.290] | < 0.005
CC(C)(NC(=O)CC1(NC(=O)c2cc(-c3ccc(F)cc3F)on2)CN([C@H]2CC[C@](C)(O)CC2)C1)c1cccc(C(F)(F)F)c1 [Example 1.199] | 0.005 to 0.1
C[C@]1(O)CC[C@@H](N2CC(CC(=O)NCc3ccccn3)(NC(=O)c3cc(-c4ccc(F)cc4F)on3)C2)CC1 [Example 1.098] | 1 to 20
COc1cc(C(C)(C)NC(=O)CC2(NC(=O)c3cc(-c4ccc(F)cc4F)on3)CN(CC(C)(C)O)C2)ccn1 [Example 1.171] | 0.1 to 1
COc1cccc(C(C)(C)NC(=O)CC2(NC(=O)c3cc(-c4ccc(F)cc4F)on3)CN([C@H]3CC[C@](C)(O)CC3)C2)n1 [Example 1.204] | < 0.005
Cc1ccc(C(C)(C)NC(=O)CC2(NC(=O)c3cc(-c4ccc(F)cc4F)on3)CN([C@H]3CC[C@@](C)(O)CC3)C2)cc1C(F)(F)F [Example 1.261] | 0.1 to 1
CC(C)(NC(=O)CC1(NC(=O)c2cc(-c3ccc(F)cc3F)on2)CN([C@H]2CC[C@](C)(O)CC2)C1)c1ccc(F)cc1F [Example 1.287] | 0.005 to 0.1
Cc1cc(C)nc(C(C)(C)NC(=O)CC2(NC(=O)c3cc(-c4ccc(F)cc4F)on3)CN(C3CCOC(C)(C)C3)C2)n1 (stereo not shown) [Example 1.359] | 0.005 to 0.1
Cc1cc(C(F)(F)F)cc(C(C)(C)NC(=O)CC2(NC(=O)c3nnc(-c4ccc(F)cc4F)s3)CN([C@H]3CC[C@](C)(O)CC3)C2)n1 [Example 1.349] | 0.005 to 0.1
CC(C)(NC(=O)CC1(NC(=O)c2nnc(-c3ccc(F)cc3F)s2)CN(C2CCCCC2)C1)c1ccccn1 [Example 1.072] | < 0.005
Cc1cccc(C(C)(C)NC(=O)CC2(NC(=O)c3cc(-c4ccc(F)cc4F)on3)CN(C3CCCCC3)C2)n1 [Example 1.293] | < 0.005
CC(C)(NC(=O)CC1(NC(=O)c2cc(-c3ccc(F)cc3F)on2)CN([C@H]2CC[C@](C)(O)CC2)C1)c1cccc2[nH]ncc12 [Example 1.087] | 1 to 20
COc1cncc(C(C)(C)NC(=O)CC2(NC(=O)c3cc(-c4ccc(F)cc4F)on3)CN([C@H]3CC[C@](C)(O)CC3)C2)c1 [Example 1.142] | 0.005 to 0.1
CC(C)(NC(=O)CC1(NC(=O)c2ncc(-c3ccc(F)cc3F)s2)CN([C@H]2CC[C@](C)(O)CC2)C1)c1cccc(Cl)c1 [Example 1.046] | 0.005 to 0.1
COc1cc(C(C)(C)NC(=O)CC2(NC(=O)c3cc(-c4ccc(F)cc4F)on3)CN([C@H]3CC[C@@](C)(O)CC3)C2)ccc1F [Example 1.176] | 0.005 to 0.1

Compound | IC50 [µM]
O=C(CC1(NC(=O)c2cc(-c3ccc(F)cc3F)on2)CN(C2CCCCC2)C1)N[C@H](C(=O)O)c1ccccc1 [Example 1.283] | 1 to 20
CC(C)(NC(=O)CC1(NC(=O)c2cc(-c3ccc(F)cc3F)on2)CN([C@H]2CC[C@@](C)(O)CC2)C1)c1cc(Cl)ccc1F [Example 1.132] | < 0.005
CC(C)(NC(=O)CC1(NC(=O)c2cc(-c3ccc(F)cc3F)on2)CN(C2CCOCC2)C1)c1cccc(Cl)c1 [Example 1.095] | 0.005 to 0.1
C[C@]1(O)CC[C@H](N2CC(CC(=O)NCc3ccccc3)(NC(=O)c3cc(-c4ccc(F)cc4F)on3)C2)CC1 [Example 1.128] | 1 to 20
CC(C)(NC(=O)CC1(NC(=O)c2cnn(-c3ccc(F)cc3F)c2)CN([C@H]2CC[C@](C)(O)CC2)C1)c1cccc(Cl)c1 [Example 1.049] | 1 to 20
CC(C)(O)CN1CC(CC(=O)NC(C)(C)c2ncccn2)(NC(=O)c2cc(-c3ccc(F)cc3F)on2)C1 [Example 1.231] | 0.1 to 1
CCOc1cccc(C(C)(C)NC(=O)CC2(NC(=O)c3cc(-c4ccc(F)cc4F)on3)CN([C@H]3CC[C@@](C)(O)CC3)C2)c1 [Example 1.186] | 0.005 to 0.1
Cc1cc(C)nc(C(C)(C)NC(=O)CC2(NC(=O)c3cc(-c4ccc(F)cc4F)n[nH]3)CN([C@H]3CC[C@@](C)(O)CC3)C2)n1 [Example 1.052] | 1 to 20
CC(C)(NC(=O)CC1(NC(=O)c2cc(-c3ccc(F)cc3F)on2)CN(C2CC3(CC3)C2)C1)c1ccccn1 [Example 1.015] | 0.005 to 0.1
CC(C)(NC(=O)CC1(NC(=O)c2nnc(-c3ccc(F)cc3F)s2)CN([C@H]2CC[C@](C)(O)CC2)C1)c1cccc(C#N)c1 [Example 1.025] | 0.005 to 0.1
Cc1cc(C2CC2)cc(C(C)(C)NC(=O)CC2(NC(=O)c3nnc(-c4ccc(F)cc4F)s3)CN([C@H]3CC[C@](C)(O)CC3)C2)n1 [Example 1.350] | 0.005 to 0.1
CCc1cccc(C(C)(C)NC(=O)CC2(NC(=O)c3cc(-c4ccc(F)cc4F)on3)CN([C@H]3CC[C@](C)(O)CC3)C2)c1 [Example 1.209] | 0.005 to 0.1
CC(C)(NC(=O)CC1(NC(=O)c2nnc(-c3ccc(F)cc3F)s2)CN([C@H]2CC[C@@](C)(O)CC2)C1)c1cccc(Cl)c1 [Example 1.064] | < 0.005
CC(C)(NC(=O)CC1(NC(=O)c2cc(-c3ccc(F)cc3F)on2)CN([C@H]2CC[C@@](C)(C(=O)O)CC2)C1)c1ccccn1 [Example 1.107] | 1 to 20
CC(C)(O)CN1CC(CC(=O)NC(C)(C)c2cccc(C#N)c2)(NC(=O)c2cc(-c3ccc(F)cc3F)on2)C1 [Example 1.145] | 0.005 to 0.1
Cc1cncc(C(C)(C)NC(=O)CC2(NC(=O)c3cc(-c4ccc(F)cc4F)on3)CN([C@H]3CC[C@@](C)(O)CC3)C2)c1 [Example 1.139] | 0.005 to 0.1
CC(C)(C)CN1CC(CC(=O)NC2(c3ncccn3)CC2)(NC(=O)c2cc(-c3ccc(F)cc3F)on2)C1 [Example 1.330] | 0.005 to 0.1
Cc1cc(Cl)cc(C(C)(C)NC(=O)CC2(NC(=O)c3nnc(-c4ccc(F)cc4F)s3)CN([C@H]3CC[C@](C)(O)CC3)C2)c1 [Example 1.348] | 0.005 to 0.1
Cn1ccc2c(C(C)(C)NC(=O)CC3(NC(=O)c4cc(-c5ccc(F)cc5F)on4)CN([C@H]4CC[C@](C)(O)CC4)C3)cccc21 [Example 1.126] | 0.005 to 0.1
CC(C)CN1CC(CC(=O)NC(C)(C)c2ccnc3[nH]ccc23)(NC(=O)c2cc(-c3ccc(F)cc3F)on2)C1 [Example 1.077] | < 0.005

Compound | IC50 [µM]
C[C@]1(O)CC[C@@H](N2CC(CC(=O)NCc3cccc(Cl)c3)(NC(=O)c3cc(-c4ccc(F)cc4F)on3)C2)CC1 [Example 1.109] | 0.1 to 1
CC(C)(NC(=O)CC1(NC(=O)c2cc(-c3ccc(F)cc3F)on2)CN(C2CCC(F)(F)CC2)C1)c1ccccn1 [Example 1.319] | 0.005 to 0.1
Cc1cc(C(C)C)cc(C(C)(C)NC(=O)CC2(NC(=O)c3cc(-c4ccc(F)cc4F)on3)CN([C@H]3CC[C@](C)(O)CC3)C2)n1 [Example 1.344] | 0.1 to 1
COC1CCC(N2CC(CC(=O)NC(C)(C)c3ccccn3)(NC(=O)c3cc(-c4ccc(F)cc4F)on3)C2)CC1 (stereo not shown) [Example 1.299] | 0.005 to 0.1
COc1cncc(C(C)(C)NC(=O)CC2(NC(=O)c3cc(-c4ccc(F)cc4F)on3)CN([C@H]3CC[C@@](C)(O)CC3)C2)c1 [Example 1.141] | 0.005 to 0.1
CC(C)(NC(=O)CC1(NC(=O)c2cnc(-c3ccc(F)cc3F)s2)CN([C@H]2CC[C@](C)(O)CC2)C1)c1cccc(Cl)c1 [Example 1.069] | 0.005 to 0.1
CC(C)(NC(=O)CC1(NC(=O)c2cc(-c3ccc(F)cc3F)on2)CN(C2CC3CC3C2)C1)c1ccccn1 (stereo not shown) [Example 1.014] | 0.005 to 0.1
CC(C)(NC(=O)CC1(NC(=O)c2cc(-c3ccc(F)cc3F)on2)CN([C@@H]2CCCCC2(C)C)C1)c1ccccn1 [Example 1.274] | < 0.005
CC(C)(NC(=O)CC1(NC(=O)c2cc(-c3ccc(F)cc3F)on2)CN(C2CCC3(CC2)CC3)C1)c1ccccn1 [Example 1.269] | 0.005 to 0.1
Cc1ccc(C(C)(C)NC(=O)CC2(NC(=O)c3cc(-c4ccc(F)cc4F)on3)CN([C@H]3CC[C@](C)(O)CC3)C2)c(F)c1 [Example 1.247] | 0.1 to 1
COc1cc(C)nc(C(C)(C)NC(=O)CC2(NC(=O)c3cc(-c4ccc(F)cc4F)on3)CN([C@H]3CC[C@](C)(O)CC3)C2)c1 [Example 1.339] | 0.005 to 0.1
C[C@]1(O)CC[C@H](N2CC(CC(=O)NCc3c[nH]c4ccccc34)(NC(=O)c3cc(-c4ccc(F)cc4F)on3)C2)CC1 [Example 1.279] | 0.005 to 0.1
CC(C)(NC(=O)CC1(NC(=O)c2cc(-c3ccc(F)cc3F)on2)CN(C2CCCCC2)C1)c1ccccc1F [Example 1.302] | < 0.005
CC(C)(NC(=O)CC1(NC(=O)c2cc(-c3ccc(F)cc3F)on2)CN([C@H]2CC[C@@](C)(O)CC2)C1)c1cccc2cc[nH]c12 [Example 1.115] | < 0.005
Cc1cc(C(C)(C)NC(=O)CC2(NC(=O)c3cc(-c4ccc(F)cc4F)on3)CN(CC3COC3)C2)ccn1 [Example 1.136] | 0.1 to 1
CC(C)(NC(=O)CC1(NC(=O)c2nnc(-c3ccc(F)cc3F)s2)CN([C@H]2CC[C@](C)(O)CC2)C1)c1ncccc1F [Example 1.022] | 0.005 to 0.1
Cc1cncc(C(C)(C)NC(=O)CC2(NC(=O)c3cc(-c4ccc(F)cc4F)on3)CN([C@H]3CC[C@](C)(O)CC3)C2)c1 [Example 1.140] | 0.005 to 0.1
CC(C)(NC(=O)CC1(NC(=O)c2cc(-c3ccc(F)cc3F)on2)CN([C@H]2CC[C@](C)(O)CC2)C1)c1ccnc(C#N)c1 [Example 1.162] | 0.005 to 0.1
